According to patent publication US20170280720A1, “ARGININE […] INHIBITORS AND USES THEREOF” (EPIZYME, INC., priority 2014, published 2017):

System: asymmetric di-methyl PABP1 in RKO cells
Assay: In Cell Western (ICW) for asymmetric di-methyl PABP1 and DNA content in RKO cells
Assay type: cell-based
Settings: Homo sapiens, RKO, In Cell Western
Procedure, shortened: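 RKO cells treated with compound for 48 h at 37 °C, then fixed, methanol-permeabilized and stained for asymmetric di-methyl PABP1 (800 nm) with DRAQ5 DNA stain (700 nm). Signal ratio normalized to DMSO and 20 μM reference-compound controls. IC50 from nine 3-fold dilutions in triplicate.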

| SMILES | IC50 |
| --- | --- |
| CN(CCN)Cc1cccc(-c2nc(NCc3cn4ccsc4n3)c3cnn(C4CC4)c3n2)c1 [Compound 5] | 20 µM |
| CNCCN(C)Cc1cccc(-c2nc(NCc3ccccn3)c3cnn(C4CC4)c3n2)c1 [Compound 9] | 20 µM |
| CC(C)n1ncc2c(C(=O)NCc3ccccc3Cl)cc(-c3cccc(CN(C)CCN)c3)nc21 [Compound 54] | 20 µM |
| CNCCN(C)Cc1cccc(-c2cc(C(=O)N3CCCCC3)c3cnn(C(C)C)c3n2)c1 [Compound 56] | 16.8 µM |
| CNCCN(C)Cc1cccc(-c2nc(NCc3cnn(C)c3C)c3cnn(C4CC4)c3n2)c1 [Compound 57] | 20 µM |
| CC(C)n1cc2c(Cl)cc(-c3cccc(CN(C)CCN)c3)nc2n1 [Compound 59] | 15.5 µM |
| CN(CCN)Cc1cccc(-c2nc(NCc3ccncc3)c3cnn(C4CC4)c3n2)c1 [Compound 66] | 20 µM |
| CNCCN(C)Cc1cccc(-c2ccc3cnn(C(C)C)c3n2)c1 [Compound 73] | 20 µM |
| CNCCN(C)Cc1cccc(-c2cc(C#N)c3cnn(C(C)C)c3n2)c1 [Compound 74] | 20 µM |
| CNCCN(C)Cc1cccc(-c2cc(N3CCC3)c3cnn(C(C)C)c3n2)c1 [Compound 79] | 20 µM |
| CNCCN(C)Cc1cccc(-c2nc(NC3CC3)c3cnn(C4CC4)c3n2)c1 [Compound 114] | 20 µM |
| CNCCN(C)Cc1cccc(-c2cc(OC)c3cnn(C(C)C)c3n2)c1 [Compound 124] | 17.8 µM |

Second part, the molecule after the results:

| IC50 | SMILES |
| --- | --- |
| 13.3 µM | CC(C)n1ncc2c(NC(=O)OCc3ccccc3)cc(-c3cccc(CN(C)CCN)c3)nc21 [Compound 84] |
| 13 µM | CCOC(=O)c1cc(-c2cccc(CN(C)CCNC)c2)nc2c1cnn2C(C)C [Compound 78] |
| 12.5 µM | CN(CCN)Cc1cccc(-c2nc(NC3CC3)c3cnn(C4CC4)c3n2)c1 [Compound 96] |
| 11.9 µM | CCS(=O)(=O)Nc1cc(-c2cccc(CN(C)CCN)c2)nc2c1cnn2C(C)C [Compound 111] |
| 11.8 µM | CC(C)n1ncc2c(NS(=O)(=O)N(C)C)cc(-c3cccc(CN(C)CCN)c3)nc21 [Compound 107] |
| 11 µM | COC(=O)Nc1cc(-c2cccc(CN(C)CCN)c2)nc2c1cnn2C(C)C [Compound 71] |
| 10.9 µM | CNCCN(C)Cc1cccc(-c2cc(OC3CCOC3)c3cnn(C(C)C)c3n2)c1 (stereo not shown) [Compound 102] |
| 10.7 µM | CNCCN(C)Cc1cccc(-c2nc(N(C)C3CCOCC3)c3cnn(C4CC4)c3n2)c1 [Compound 109, N1-(3-(1-cyclopropyl-4-(methyl(tetrahydro-2H-pyran-4-yl)amino)-1H-pyrazolo[3,4-d]pyrimidin-6-yl)benzyl)-N1,N2-dimethylethane-1,2-diamine] |
| 10.3 µM | CNCCN(C)Cc1cccc(-c2cc(N(C)C)c3cnn(C(C)C)c3n2)c1 [Compound 103] |
| 7.45 µM | CNCCN(C)Cc1cccc(-c2cc(NC)c3cnn(C(C)C)c3n2)c1 [Compound 121] |
| 6.8 µM | CNCCN(C)Cc1cccc(-c2cc(N(C)C3CC3)c3cnn(C(C)C)c3n2)c1 [Compound 95] |
| 6.31 µM | CC(C)n1ncc2c(NC3CCOCC3)cc(-c3cccc(CN(C)CCN)c3)nc21 [Compound 101] |
| 5.66 µM | CC(C)n1ncc2c(N3CCOCC3)cc(-c3cccc(CN(C)CCN)c3)nc21 [Compound 61, N1-(3-(1-isopropyl-4-morpholino-1H-pyrazolo[3,4-b]pyridin-6-yl)benzyl)-N1-methylethane-1,2-diamine] |
| 5.39 µM | CNCCN(C)Cc1cccc(-c2cc(N3CCC(OC)CC3)c3cnn(C(C)C)c3n2)c1 [Compound 51] |
| 5.36 µM | CCNc1cc(-c2cccc(CN(C)CCNC)c2)nc2c1cnn2C(C)C [Compound 72] |
| 4.81 µM | CNCCN(C)Cc1cccc(-c2cc(N3CCCC(C#N)C3)c3cnn(C(C)C)c3n2)c1 (stereo not shown) [Compound 55] |
| 4.78 µM | CNCCN(C)Cc1cccc(-c2cc(NC(=O)N(C)C)c3cnn(C(C)C)c3n2)c1 [Compound 123] |

| IC50 | SMILES |
| --- | --- |
| 3.47 µM | CCOc1cc(-c2cccc(CN(C)CCNC)c2)nc2c1cnn2C(C)C [Compound 53] |
| 3.46 µM | CC(C)NC(=O)Nc1cc(-c2cccc(CN(C)CCN)c2)nc2c1cnn2C(C)C [Compound 86] |
| 3.2 µM | CNCCN(C)Cc1cccc(-c2cc(NC3COC3)c3cnn(C(C)C)c3n2)c1 [Compound 58] |
| 2.62 µM | CC(C)n1ncc2c(NC(=O)N(C)C)cc(-c3cccc(CN(C)CCN)c3)nc21 [Compound 116] |
| 2.58 µM | CNCCN(C)Cc1cccc(-c2cc(NC(=O)NC(C)C)c3cnn(C(C)C)c3n2)c1 [Compound 85] |
| 2.17 µM | CNCCN(C)Cc1cccc(-c2cc(C(=O)NC3CCOCC3)c3cnn(C4CC4)c3n2)c1 [Compound 87] |
| 1.65 µM | CNCCN(C)Cc1cccc(-c2cc(N3CCC(C#N)CC3)c3cnn(C(C)C)c3n2)c1 [Compound 93] |
| 1.63 µM | CNCCN(C)Cc1cccc(-c2cc(NC3CCOCC3)c3cnn(C(C)C)c3n2)c1 [Compound 76] |
| 1.6 µM | CNCCN(C)Cc1cccc(-c2cc(C(=O)NCc3ccccn3)c3cnn(C(C)C)c3n2)c1 [Compound 98] |
| 1.54 µM | CNCCN(C)Cc1cccc(-c2nc(N3CCOCC3)c3cnn(C(C)C)c3n2)c1 [Compound 99] |
| 1.53 µM | CNCCN(C)Cc1cccc(-c2cc(C(=O)NCc3cc(C)nn3C)c3cnn(C(C)C)c3n2)c1 [Compound 120] |
| 1.37 µM | CN(CCN)Cc1cccc(-c2nc(N(C)C3CCOCC3)c3cnn(C4CC4)c3n2)c1 [Compound 119] |
| 1.36 µM | CNCCN(C)Cc1cccc(-c2cc(C(=O)NCC3CCOCC3)c3cnn(C(C)C)c3n2)c1 [Compound 105] |
| 1.29 µM | CNCCN(C)Cc1cccc(-c2cc(-c3cnn(C)c3)c3cnn(C(C)C)c3n2)c1 [Compound 49, N1-(3-(1-isopropyl-4-(1-methyl-1H-pyrazol-4-yl)-1H-pyrazolo[3,4-b]pyridin-6-yl)benzyl)-N1,N2-dimethylethane-1,2-diamine] |
| 1.13 µM | CC(C)n1ncc2c(C(=O)NCC3CCOCC3)cc(-c3cccc(CN(C)CCN)c3)nc21 [Compound 108] |
| 0.39 µM | CNCCN(C)Cc1cccc(-c2nc(NCc3cn4ccsc4n3)c3cnn(C4CC4)c3n2)c1 [Compound 6] |

Target: PRMT5 (Homo sapiens, UniProt O14744)
Sequence (O14744 whole entry, species assumed): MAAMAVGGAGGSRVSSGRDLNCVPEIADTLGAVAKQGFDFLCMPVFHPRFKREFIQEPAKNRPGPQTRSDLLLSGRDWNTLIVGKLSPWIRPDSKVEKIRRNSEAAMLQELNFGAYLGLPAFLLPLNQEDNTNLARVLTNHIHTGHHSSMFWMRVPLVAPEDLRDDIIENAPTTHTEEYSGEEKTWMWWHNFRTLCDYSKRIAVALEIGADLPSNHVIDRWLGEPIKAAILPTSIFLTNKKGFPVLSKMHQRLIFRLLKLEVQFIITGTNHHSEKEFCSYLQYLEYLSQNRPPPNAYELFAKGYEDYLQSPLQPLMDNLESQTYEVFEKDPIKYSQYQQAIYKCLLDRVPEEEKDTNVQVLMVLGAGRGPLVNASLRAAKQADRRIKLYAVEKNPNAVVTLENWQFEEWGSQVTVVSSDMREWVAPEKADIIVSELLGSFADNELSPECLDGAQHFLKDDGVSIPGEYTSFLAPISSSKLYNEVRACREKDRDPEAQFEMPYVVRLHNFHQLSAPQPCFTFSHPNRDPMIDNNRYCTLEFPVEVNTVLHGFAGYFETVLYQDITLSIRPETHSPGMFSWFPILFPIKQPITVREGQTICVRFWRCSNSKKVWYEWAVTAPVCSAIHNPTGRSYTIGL
Sequence (Q9BQA1 whole entry partner, species assumed): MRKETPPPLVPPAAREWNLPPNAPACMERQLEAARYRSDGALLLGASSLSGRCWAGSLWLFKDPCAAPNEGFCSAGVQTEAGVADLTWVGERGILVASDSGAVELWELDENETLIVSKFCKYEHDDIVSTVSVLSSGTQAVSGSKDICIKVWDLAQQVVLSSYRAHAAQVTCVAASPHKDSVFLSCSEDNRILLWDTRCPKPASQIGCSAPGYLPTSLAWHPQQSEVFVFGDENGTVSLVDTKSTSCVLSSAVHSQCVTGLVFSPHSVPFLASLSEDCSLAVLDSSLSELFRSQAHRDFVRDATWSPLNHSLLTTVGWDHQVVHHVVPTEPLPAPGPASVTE
Assay: PRMT5 IC50 (Table 2; no method described)
Assay type: biochemical
Settings: read-out: PRMT5_ IC50

| SMILES | IC50 |
| --- | --- |
| Cc1c(C(=O)NCc2ccccc2)cc(-c2ccc(CN(C)CCN)cc2)c2cn[nH]c12 [Compound 7] | 22.5 µM |
| COc1cccc(Cn2cnc3ccc(-c4ccc(CN(C)CCN)cc4)cc32)c1 [Compound 8] | 16 µM |
| NCCNCc1ccc(-c2ccc3ncn(CC4CCNCC4)c3c2)cc1 [Compound 70] | 0.421 µM |
| CNCCN(C)Cc1cccc(-c2ccc3cnn(C(C)C)c3n2)c1 [Compound 73] | 50 µM |
| COc1ccccc1Cn1cnc2ccc(-c3ccc(CNCCN)cc3)cc21 [Compound 80] | 0.161 µM |
| NCCNCc1ccc(-c2ccc3ncn(CC4CCCNC4)c3c2)cc1 (stereo not shown) [Compound 81] | 0.321 µM |
| Cc1ccccc1Cn1cnc2ccc(-c3ccc(CNCCN)cc3)cc21 [Compound 82] | 0.236 µM |
| COc1cccc(CCn2cnc3ccc(-c4ccc(CNCCN)cc4)cc32)c1 [Compound 94] | 0.0888 µM |
| Cc1ccc(Cn2cnc3ccc(-c4ccc(CNCCN)cc4)cc32)cc1 [Compound 97] | 0.0659 µM |
| CNCCN(C)Cc1cccc(-c2ccc3cnn(C(C)C)c3c2)c1 [Compound 100] | 50 µM |
| NCCNCc1ccc(-c2ccc3ncn(Cc4ccc(C(=O)N5CCCC5)cc4)c3c2)cc1 [Compound 104] | 0.1 µM |
| Cc1cccc(-n2cnc3ccc(-c4ccc(CNCCN)cc4)cc32)c1 [Compound 106] | 0.178 µM |
| COc1cccc(-n2cnc3ccc(-c4ccc(CNCCN)cc4)cc32)c1 [Compound 110] | 0.273 µM |
| COc1ccccc1-c1nc2ccc(-c3ccc(CNCCN)cc3)cc2[nH]1 [Compound 115] | 0.343 µM |

Further lines, results first:

| IC50 | SMILES |
| --- | --- |
| 27.7 µM | CC(C)n1ncc2c(NC(=O)OCc3ccccc3)cc(-c3cccc(CN(C)CCN)c3)nc21 [Compound 84] |
| 200 µM | CNCCN(C)Cc1cccc(-c2cc(N(C)C3CC3)c3cnn(C(C)C)c3n2)c1 [Compound 95] |
